Experimental data taken from patent US9487502B2, “Chemical compounds” (Syngenta Limited, priority 2013, dated 2016).

What was measured:
Type in all cases: in vivo
Parameters in all cases: key: 5=total damage to plant; 0=no damage to plant
Amaranthus retroflexus [1] = assay: Pre-emergence herbicidal activity, AMARE; details: 1000 g/Ha, sprayed pre-emergence, evaluated after 13 days, scale 0-5
Experimental: (§1) Seeds of a variety of test species were sown in standard soil in pots. After cultivation for one day (pre-emergence) under controlled conditions in a glasshouse (at 24/16° C., day/night; 14 hours light; 65% humidity), the plants were sprayed with an aqueous spray solution derived from the formulation of the technical active ingredient in acetone/water (50:50) solution containing 0.5% Tween 20 (polyoxyethelyene sorbitan monolaurate, CAS RN 9005-64-5). The test plants were then grown in a glasshouse under controlled conditions (at 24/16° C., day/night; 14 hours light; 65% humidity) and watered twice daily. After 13 days, the test was evaluated (5=total damage to plant; 0=no damage to plant).

Abutilon theophrasti [2] = assay: Post-emergence herbicidal activity, ABUTH; details: 1000 g/Ha, sprayed post-emergence (8 days cultivation), evaluated after 13 days, scale 0-5
Experimental: (§2) Seeds of a variety of test species were sown in standard soil in pots. After 8 days cultivation (post-emergence) under controlled conditions in a glasshouse (at 24/16° C., day/night; 14 hours light; 65% humidity), the plants were sprayed with an aqueous spray solution derived from the formulation of the technical active ingredient in acetone/water (50:50) solution containing 0.5% Tween 20 (polyoxyethelyene sorbitan monolaurate, CAS RN 9005-64-5). The test plants were then grown in a glasshouse under controlled conditions (at 24/16° C., day/night; 14 hours light; 65% humidity) and watered twice daily. After 13 days, the test was evaluated (5=total damage to plant; 0=no damage to plant).

Echinochloa crus-galli [3] = assay: Pre-emergence herbicidal activity, ECHCG; details: 1000 g/Ha, sprayed pre-emergence, evaluated after 13 days, scale 0-5
Experimental: as §1

Setaria faberi [4] = assay: Post-emergence herbicidal activity, SETFA; details: 1000 g/Ha, sprayed post-emergence (8 days cultivation), evaluated after 13 days, scale 0-5
Experimental: as §2

Amaranthus retroflexus [5] = assay: Post-emergence herbicidal activity, AMARE; details: 1000 g/Ha, sprayed post-emergence (8 days cultivation), evaluated after 13 days, scale 0-5
Experimental: as §2

Zea mays [6] = assay: Post-emergence herbicidal activity, ZEAMX; details: 1000 g/Ha, sprayed post-emergence (8 days cultivation), evaluated after 13 days, scale 0-5
Experimental: as §2

Echinochloa crus-galli [7] = assay: Post-emergence herbicidal activity, ECHCG; details: 1000 g/Ha, sprayed post-emergence (8 days cultivation), evaluated after 13 days, scale 0-5
Experimental: as §2

Alopecurus myosuroides [8] = assay: Pre-emergence herbicidal activity, ALOMY; details: 1000 g/Ha, sprayed pre-emergence, evaluated after 13 days, scale 0-5
Experimental: as §1

Setaria faberi [9] = assay: Pre-emergence herbicidal activity, SETFA; details: 1000 g/Ha, sprayed pre-emergence, evaluated after 13 days, scale 0-5
Experimental: as §1

Abutilon theophrasti [10] = assay: Pre-emergence herbicidal activity, ABUTH; details: 1000 g/Ha, sprayed pre-emergence, evaluated after 13 days, scale 0-5
Experimental: as §1

Alopecurus myosuroides [11] = assay: Post-emergence herbicidal activity, ALOMY; details: 1000 g/Ha, sprayed post-emergence (8 days cultivation), evaluated after 13 days, scale 0-5
Experimental: as §2

Zea mays [12] = assay: Pre-emergence herbicidal activity, ZEAMX; details: 1000 g/Ha, sprayed pre-emergence, evaluated after 13 days, scale 0-5
Experimental: as §1

| SMILES | AMARE damage score, application pre-emergence (Amaranthus retroflexus [1]) | ABUTH damage score, application post-emergence (Abutilon theophrasti [2]) | ECHCG damage score, application pre-emergence (Echinochloa crus-galli [3]) | SETFA damage score, application post-emergence (Setaria faberi [4]) | AMARE damage score, application post-emergence (Amaranthus retroflexus [5]) | ZEAMX damage score, application post-emergence (Zea mays [6]) | ECHCG damage score, application post-emergence (Echinochloa crus-galli [7]) | ALOMY damage score, application pre-emergence (Alopecurus myosuroides [8]) | SETFA damage score, application pre-emergence (Setaria faberi [9]) | ABUTH damage score, application pre-emergence (Abutilon theophrasti [10]) | ALOMY damage score, application post-emergence (Alopecurus myosuroides [11]) | ZEAMX damage score, application pre-emergence (Zea mays [12]) |
| --- | --- | --- | --- | --- | --- | --- | --- | --- | --- | --- | --- | --- |
| CCOC1C(O)N(c2cc(C(C)(C)C)ncn2)C(=O)N1OC (stereo not drawn) [Example A8] | 5 | 5 | 5 | 5 | 5 | 4 | 5 | 5 | 5 | 5 | 5 | 1 |
| CON1CC(O)N(c2cc(C(C)(C)C)ncn2)C1=O (stereo not drawn) [Example A23] | 5 | 5 | 4 | 5 | 4 | 4 | 4 | 1 | 2 | 5 | 1 | 1 |
| CC1C(O)N(c2cc(C(C)(C)C)ncn2)C(=O)N1C (stereo not drawn) [Example A3] | 5 | 5 | 4 | 5 | 5 | 3 | 5 | 4 | 5 | 5 | 5 | 2 |
| CN1C(=O)N(c2cc(C(C)(C)C)ncn2)C(O)C1O (stereo not drawn) [Example A4, 1-(6-tert-butylpyrimidin-4-yl)-4,5-dihydroxy-3-methyl-imidazolidin-2-one] | 5 | 4 | 2 | 4 | 5 | 1 | 2 | 2 | 2 | 4 | 4 | 0 |
| CCCC1C(O)N(c2cc(C(C)(C)C)ncn2)C(=O)N1C (stereo not drawn) [Example A17] | 5 | 5 | 5 | 5 | 5 | 4 | 5 | 4 | 5 | 4 | 3 | 3 |
| CC1C(O)N(c2cc(C(C)(C)F)ncn2)C(=O)N1C (stereo not drawn) [Example A20] | 5 | 5 | 4 | 5 | 5 | 4 | 5 | 3 | 5 | 5 | 4 | 4 |
| CN1CC(O)N(c2cc(C(C)(C)F)ncn2)C1=O (stereo not drawn) [Example A22] | 5 | 5 | 5 | 5 | 5 | 5 | 5 | 4 | 5 | 5 | 5 | 4 |
| CN1CC(O)N(c2cc(C(C)(C)C#N)ncn2)C1=O (stereo not drawn) [Example A2] | 5 | 5 | 4 | 5 | 5 | 3 | 5 | 4 | 5 | 4 | 5 | 3 |
| CON1C(=O)N(c2cc(C(C)(C)F)ncn2)C(O)C1C (stereo not drawn) [Example A21] | 5 | 5 | 4 | 5 | 5 | 4 | 5 | 3 | 5 | 5 | 5 | 3 |
| CN1C(=O)N(c2cc(C(C)(C)C)ncn2)C(O)C1C(F)(F)F (stereo not drawn) [Example A31] | 2 | 5 | 3 | 5 | 1 | 1 | 3 | 3 | 4 | 2 | 4 | 0 |
| CCCOC1C(OCCC)N(c2cc(C(C)(C)C)ncn2)C(=O)N1C (stereo not drawn) [Example A28] | 0 | 0 | 0 | 0 | 0 | 0 | 0 | 0 | 0 | 0 | 0 | 0 |
| C=CCC1C(O)N(c2cc(C(C)(C)C)ncn2)C(=O)N1C (single isomer, unassigned) [Example A33] | 5 | 5 | 5 | 5 | 5 | 3 | 5 | 4 | 4 | 5 | 5 | 3 |
| CCOC1C(O)N(c2cc(C(C)(C)C)ncn2)C(=O)N1CC (stereo not drawn) [Example A27] | 1 | 4 | 0 | 3 | 0 | 2 | 0 | 0 | 0 | 1 | 1 | 0 |
